Experimental data published in patent publication US12247320B2, “Multivalent glycopeptides that tightly bind to carbohydrate-binding monoclonal antibody family PGT128” (BRANDEIS UNIVERSITY, priority 2018, dated 2025).

Legend:
PGT128 = assay: Binding of radiolabeled, cyclized, glycosylated peptides to PGT128 (Protein G bead capture, scintillation counting); settings: for Kd: after affinity purification with 100 nM PGT128
Procedure: Radioactive Peptides. For binding analysis, translation (50 μL) was carried out in the presence of PDF/MAP and ^3H-histidine for radiolabeling. The crude peptides were purified by Ni-NTA agarose or, if the sequence contained two cysteine residues, was cyclized while captured on the Ni-NTA resin. The peptide eluents were combined and dialyzed as follows. To the combined eluents was added a solution of Triton X-100 in water for a final concentration of 0.1%. Then, the peptides were dialyzed against 0.1% (v/v) Triton X-100 using a Slide-A-Lyzer™ MINI device (0.1 mL capacity, 3.5 kDa MWCO) (ThermoScientific) at room temperature overnight. The dialyzed peptides were retrieved from the devices, transferring to 0.5 mL centrifuge tubes. The peptide solutions were concentrated to dryness by speedvac for the click reaction.
Sequences were screened for their binding to PGT128 as follows. Each glycosylated peptide (20 fmol) was incubated with either 0 nM or 100 nM PGT128, diluted to 20 μL with 1× selection buffer, tumbling for 1 hour at room temperature. While tumbling, Dynabeads™ Protein G (Invitrogen) were equilibrated with 1× selection buffer as follows. Steps were carried out using a multi-channel pipettor where possible. For each sequence, 5 μL of Protein G bead suspension was transferred to a 0.2 mL PCR tube in a strip. Then, 40 μL of 1× selection buffer was added to the beads. The mixture was resuspended by gently vortexing, spun down briefly, and placed on a magnet for 1 minute. The supernatant was removed, and this wash was repeated two more times. The final supernatant was removed just prior to addition of the incubated peptide/antibody mixture. The mixture was allowed to tumble at room temperature for 30 minutes to capture antibodies and bound peptides. Then, the suspension was briefly spun down, placed on a magnet, and the supernatant was transferred to an individual 0.2 mL PCR tube. To wash the beads, 20 μL of 1× selection buffer was added, gently vortexed, spun down briefly, placed on a magnet for 1 minute, and the wash was transferred to the same PCR tube as the supernatant. This wash step was repeated twice more for a total of three washes, saved altogether with the supernatant as the “unbound” fraction. The beads were then resuspended in 40 μL of denaturing elute buffer. The suspension was heated at 95° C. for 5 minutes to denature antibodies, spun down briefly, placed on a magnet for 1 minute, and the eluent was transferred to an individual 0.2 mL PCR tube. The beads were washed with 40 μL of denaturing elute buffer, and the wash was placed into the same tube as the eluent. The combined eluent and wash represented the “bound” fraction. The beads were resuspended in 40 μL of denaturing elute buffer, vortexed, and directly placed into a vial with liquid scintillation cocktail for radioactivity measurements, though it was not included in calculations of fraction bound. Each of the tubes with the “unbound” and “bound” fractions were placed into vials for LSC. The tube in which the antibody and peptides were incubated were also measured by LSC, but not included in calculations of fraction bound.
Cyclized and glycosylated peptides 91-8 (SEQ ID NO:74) and 91-12 (SEQ ID NO:76) (Heavily Biased library) were subject to PGT128 affinity purification. The sequences (0.3 μmol) were each incubated with 100 nM PGT128, diluted to 40 μL with 1× selection buffer, tumbling for 1 hour at room temperature. The antibody/peptide complexes were captured on equilibrated Protein G (10 μL) and washed as described previously. The bound fraction was then eluted as follows. The beads were resuspended in 10 μL of 1× selection buffer and heated at 70° C. for 30 minutes. Then, the suspension was chilled on ice for 5 minutes, and tumbled at room temperature for 10 minutes. The eluent was separated, and the beads were washed with 10 μL of 1× selection buffer. The wash was combined with the eluent as the “bound” fraction. […]

[1] = Solubility seen during reduction and cyclization of the synthetic peptide; type: physicochemical; settings: reduced peptide in 200 mM NH4HCO3 with 10 mM TCEP, not glycosylated
Procedure: Then, 9 mg of crude peptide was reduced and cyclized as follows. Each peptide (1 mM final concentration) was dissolved in 200 mM NH4HCO3 with 10 mM TCEP for a reaction volume of 1332 μL. The reactions were tumbled at room temperature for 50 minutes. At that time, the reactions were buffer-exchanged to remove excess TCEP. […] The pellet was washed six times with 1 mL portions of 200 mM NH4HCO3. Portions of the H-22 reaction were transferred to Centricon-500 spin columns (MWCO 2 kDa) with 300 μL of 200 mM NH4HCO3. The filters were spun down and washed six times with 300 μL of 200 mM NH4HCO3. The solutions were then diluted to 1322 μL with 200 mM NH4HCO3, 5.95 mL of water, and 5.68 mL of MeCN in a 15 mL conical tube. Then, 529 μL of a solution of 5 mM m-dibromoxylene in MeCN was added, for a final concentration of 0.2 mM of m-dibromoxylene and 0.1 mM peptide. The cyclization reactions were tumbled at room temperature and monitored by LC-MS. After 40 minutes, H22 was complete. At that time, 132 μL of 5 mM m-dibromoxylene in MeCN was added to the H-1 reaction to push it to completion (total reaction time: 140 minutes). The reactions were quenched by lowering the pH with formic acid. The solutions were concentrated under reduced pressure and lyophilized overnight.

[2] = before PGT128 affinity purification
[3] = following PGT128 affinity purification

MAHYSXNHXRHPLYPSVNHRXSYPRIGLLSRIGDIRSASCXLRCFRXRST [91-8cy]
Kd (PGT128): 2.73 ± 0.36 nM
maximum fraction bound (PGT128; [2]): 69%
maximum fraction bound (PGT128; [3]): 85%

XYPNTLNNVYQKCNKYNVIGDIRXARCXHXEHFSSQDQPKSKHKRRYKGF [91-12cy]
Kd (PGT128): 7.41 ± 1.29 nM
maximum fraction bound (PGT128; [2]): 54%
maximum fraction bound (PGT128; [3]): 74%

YTEKHNGIGDIRPAICXNSKNQNHRCNHYQIKLYIHXLXRLPHNYRNS [H-1, Top round 12 PGT128 cluster, Heavily Biased library; made by SPPS with C-terminal biotinyl-lysine]
solubility [1]: poor solubility
